In publication PMC7044277 (Nature Communications, 2020):
Where “and” joins values, the source holds several entries; their conditions need not be identical. Equal values may be shown once.

Tests used:
Assay type in all cases: cell-based
[1] = biological target: T1, 320 non-olfactory GPCRs (Homo sapiens, UniProt P08173)
T1 construct: expressed in transfected cells; host or cells: HTLA cells

[2] = biological target: T2, 320 non-olfactory GPCRs (Homo sapiens, UniProt P41180)
T2 construct: expressed in transfected cells; host or cells: HTLA cells
T2 sequence (P41180 20-1078): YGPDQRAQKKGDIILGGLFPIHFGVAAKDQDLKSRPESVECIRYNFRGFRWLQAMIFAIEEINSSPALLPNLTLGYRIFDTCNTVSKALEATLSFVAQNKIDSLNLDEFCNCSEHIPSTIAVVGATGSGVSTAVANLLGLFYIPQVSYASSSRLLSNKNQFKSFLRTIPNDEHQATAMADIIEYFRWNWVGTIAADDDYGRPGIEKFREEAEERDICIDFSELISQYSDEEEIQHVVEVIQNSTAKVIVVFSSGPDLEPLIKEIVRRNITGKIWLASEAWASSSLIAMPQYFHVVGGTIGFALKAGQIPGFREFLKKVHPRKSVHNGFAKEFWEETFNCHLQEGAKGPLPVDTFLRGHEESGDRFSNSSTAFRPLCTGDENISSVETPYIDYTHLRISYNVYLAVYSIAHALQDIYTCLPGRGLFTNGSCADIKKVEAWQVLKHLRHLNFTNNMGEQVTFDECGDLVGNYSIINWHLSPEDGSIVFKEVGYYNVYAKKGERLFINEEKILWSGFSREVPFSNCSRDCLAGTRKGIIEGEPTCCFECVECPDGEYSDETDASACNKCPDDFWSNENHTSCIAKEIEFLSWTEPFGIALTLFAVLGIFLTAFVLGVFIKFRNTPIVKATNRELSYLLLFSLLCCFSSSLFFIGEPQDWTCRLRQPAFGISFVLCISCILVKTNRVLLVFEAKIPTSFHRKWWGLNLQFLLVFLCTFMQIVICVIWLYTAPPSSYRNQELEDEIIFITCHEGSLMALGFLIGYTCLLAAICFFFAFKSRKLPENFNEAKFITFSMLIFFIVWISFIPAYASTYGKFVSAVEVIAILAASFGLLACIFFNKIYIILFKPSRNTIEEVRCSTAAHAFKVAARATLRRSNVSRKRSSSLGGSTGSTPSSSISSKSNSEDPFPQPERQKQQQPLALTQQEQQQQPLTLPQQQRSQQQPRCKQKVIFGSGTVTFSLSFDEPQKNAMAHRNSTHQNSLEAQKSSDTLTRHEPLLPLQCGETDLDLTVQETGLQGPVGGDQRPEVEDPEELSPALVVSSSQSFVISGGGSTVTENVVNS

[3] = biological target: T3, 320 non-olfactory GPCRs (Homo sapiens, UniProt Q16602)
T3 construct: expressed in transfected cells; host or cells: HTLA cells
T3 sequence (Q16602 23-461): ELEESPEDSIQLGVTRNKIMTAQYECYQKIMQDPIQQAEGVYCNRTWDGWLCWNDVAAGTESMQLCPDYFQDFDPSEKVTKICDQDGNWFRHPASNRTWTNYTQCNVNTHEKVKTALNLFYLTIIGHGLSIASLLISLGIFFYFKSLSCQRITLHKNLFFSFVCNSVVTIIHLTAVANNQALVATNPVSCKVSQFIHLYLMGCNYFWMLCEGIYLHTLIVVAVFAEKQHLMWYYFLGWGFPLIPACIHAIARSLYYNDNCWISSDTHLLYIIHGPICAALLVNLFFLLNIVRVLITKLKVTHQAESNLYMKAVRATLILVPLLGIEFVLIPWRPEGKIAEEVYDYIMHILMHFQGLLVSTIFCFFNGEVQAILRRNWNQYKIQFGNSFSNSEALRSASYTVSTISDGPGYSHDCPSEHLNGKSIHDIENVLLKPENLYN

[4] = biological target: T4, 320 non-olfactory GPCRs (Homo sapiens, UniProt Q5T601)
T4 construct: expressed in transfected cells; host or cells: HTLA cells
T4 sequence (Q5T601 20-910): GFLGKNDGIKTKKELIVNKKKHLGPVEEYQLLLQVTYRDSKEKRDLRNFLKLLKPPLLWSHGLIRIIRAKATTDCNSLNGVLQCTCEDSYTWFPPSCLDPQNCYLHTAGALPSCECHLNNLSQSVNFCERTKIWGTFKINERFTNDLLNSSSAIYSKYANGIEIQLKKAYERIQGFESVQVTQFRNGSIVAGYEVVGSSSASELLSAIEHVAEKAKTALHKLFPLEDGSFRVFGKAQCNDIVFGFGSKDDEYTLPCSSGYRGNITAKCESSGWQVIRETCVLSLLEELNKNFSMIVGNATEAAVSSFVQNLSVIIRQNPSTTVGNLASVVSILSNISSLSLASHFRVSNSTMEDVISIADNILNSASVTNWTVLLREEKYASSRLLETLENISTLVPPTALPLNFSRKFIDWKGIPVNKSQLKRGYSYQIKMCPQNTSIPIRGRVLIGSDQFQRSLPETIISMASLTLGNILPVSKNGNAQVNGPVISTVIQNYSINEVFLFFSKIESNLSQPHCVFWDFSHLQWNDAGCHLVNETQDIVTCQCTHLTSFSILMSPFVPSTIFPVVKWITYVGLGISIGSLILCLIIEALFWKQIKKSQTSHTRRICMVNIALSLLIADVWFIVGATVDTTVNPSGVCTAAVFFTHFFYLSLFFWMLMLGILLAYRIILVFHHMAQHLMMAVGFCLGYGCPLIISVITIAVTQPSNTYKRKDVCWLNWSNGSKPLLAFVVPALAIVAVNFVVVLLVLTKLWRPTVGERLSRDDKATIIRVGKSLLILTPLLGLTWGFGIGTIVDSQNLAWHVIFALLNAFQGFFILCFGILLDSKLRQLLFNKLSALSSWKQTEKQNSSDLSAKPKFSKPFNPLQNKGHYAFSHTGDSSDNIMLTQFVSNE
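Also: compound tested at 1 µM final concentration.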

T1 sequence (P08173 whole entry): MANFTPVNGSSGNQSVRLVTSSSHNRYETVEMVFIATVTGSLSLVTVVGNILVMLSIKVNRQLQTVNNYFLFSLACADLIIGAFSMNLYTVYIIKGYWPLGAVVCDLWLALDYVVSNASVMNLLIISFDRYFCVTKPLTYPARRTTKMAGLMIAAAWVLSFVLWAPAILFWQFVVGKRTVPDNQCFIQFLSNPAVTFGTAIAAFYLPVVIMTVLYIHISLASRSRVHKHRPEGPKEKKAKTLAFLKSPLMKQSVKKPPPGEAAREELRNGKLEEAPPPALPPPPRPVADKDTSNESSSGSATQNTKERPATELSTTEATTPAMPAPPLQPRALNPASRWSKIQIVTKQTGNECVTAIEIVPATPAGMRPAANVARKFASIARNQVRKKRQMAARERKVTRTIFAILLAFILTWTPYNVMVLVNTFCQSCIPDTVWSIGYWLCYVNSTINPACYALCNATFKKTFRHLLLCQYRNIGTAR

`CCOc1cccc2cc(C(C)NCC3(O)CCCCC3)oc12` (stereo not shown) [O4LE6] was tested, and the “Fold of Basal” value [1] was 0.6531 and 0.5382 and 0.5491 and 0.5885, the “Fold of Basal” value [2] was 0.9783 and 1.253 and 1.231 and 1.397 and the “Fold of Basal” value [3] was 0.7801 and 0.8303 and 0.6573 and 0.7619. For the same compound, the “Fold of Basal” value [4] was 0.7534 and 0.5781 and 0.7634.
